Assay results reported in ChEMBL document CHEMBL1201862, “PubChem BioAssay data set” (2004).
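Method: 48-hour compound exposure of cells in 96-well plates, five concentrations, linear interpolation of endpoints. GI50 = concentration required for 50% inhibition of growth.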 Active and inactive are the calls of the source. Rule as the data show it: active = GI50 up to about 1.1 µM and inactive = higher.

Tests used:
Assay in all cases: NCI tumour cell line growth inhibition, 48 h
[1] = test system: Hs-578T
[2] = test system: CAKI-1
[3] = test system: SN12C
[4] = test system: SR
[5] = test system: U-251
[6] = test system: SF-539
[7] = test system: HCC 2998
[8] = test system: KM12
[9] = test system: HL-60
[10] = test system: IGROV-1
[11] = test system: OVCAR-3
[12] = test system: OVCAR-5
[13] = test system: M14
[14] = test system: OVCAR-8
[15] = test system: T47D
[16] = test system: HCT-116
[17] = test system: A549
[18] = test system: HT-29
[19] = test system: BT-549
[20] = test system: SF-295
[21] = test system: SF-268
[22] = test system: 786-0
[23] = test system: SK-MEL-28
[24] = test system: MOLT-4
[25] = test system: SNB-19
[26] = test system: PC-3
[27] = test system: HCT-15
[28] = test system: K562
[29] = test system: MCF7
[30] = test system: CCRF-CEM
[31] = test system: NCI-H522
[32] = test system: EKVX
[33] = test system: UACC-62
[34] = test system: NCI-H23
[35] = test system: RPMI-8226
[36] = test system: NCI-H460
[37] = test system: UO-31
[38] = test system: SK-OV-3
[39] = test system: A498
[40] = test system: NCI-H226
[41] = test system: TK-10
[42] = test system: DU-145
[43] = test system: SNB-75
[44] = test system: RXF 393
[45] = test system: SK-MEL-2
[46] = test system: NCI/ADR-RES
[47] = test system: ACHN
[48] = test system: SK-MEL-5
[49] = test system: UACC-257
[50] = test system: HOP-62
[51] = test system: SW-620
[52] = test system: MDA-MB-231
[53] = test system: Malme-3M
[54] = test system: LOX IMVI
[55] = test system: HOP-92
[56] = test system: COLO 205
[57] = test system: OVCAR-4
[58] = test system: MDA-MB-435

With `C=C1c2nc3ccccc3n2C=C(c2ccc(C)cc2)N1c1ccc(OC)cc1` the GI50 [1] was > 77.4 µM (inactive), the GI50 [2] was 36.1 µM (inactive) and the GI50 [3] was > 94.4 µM (inactive). The GI50 [4] was 3.22 µM (inactive), the GI50 [5] was 97.7 µM (inactive) and the GI50 [6] was > 69.5 µM (inactive). The GI50 [7] was 31.8 µM (inactive), the GI50 [8] was 5.56 µM (inactive) and the GI50 [9] was 8.34 µM (inactive). The GI50 [10] was > 83 µM (inactive), the GI50 [11] was 46.8 µM (inactive) and the GI50 [12] was > 100 µM (inactive). The GI50 [13] was 58.2 µM (inactive), the GI50 [14] was 75.5 µM (inactive) and the GI50 [15] was 26.2 µM (inactive). For the same compound, the GI50 [16] was 19.5 µM (inactive), the GI50 [17] was 47.5 µM (inactive) and the GI50 [18] was 8.89 µM (inactive). For the same compound, the GI50 [19] was > 82.8 µM (inactive), the GI50 [20] was 33.7 µM (inactive) and the GI50 [21] was > 100 µM (inactive). The GI50 [22] was > 100 µM (inactive), the GI50 [23] was > 70.5 µM (inactive) and the GI50 [24] was 15.2 µM (inactive). The GI50 [25] was > 100 µM (inactive), the GI50 [26] was 16.4 µM (inactive) and the GI50 [27] was 9.51 µM. The GI50 [28] was 6.41 µM (inactive), the GI50 [29] was 15.3 µM (inactive) and the GI50 [30] was 34.4 µM (inactive). The GI50 [31] was 7.52 µM (inactive), the GI50 [32] was 32.5 µM (inactive) and the GI50 [33] was 51.3 µM (inactive). For the same compound, the GI50 [34] was > 73.6 µM (inactive), the GI50 [35] was 13 µM (inactive) and the GI50 [36] was 59.8 µM (inactive). The GI50 [37] was 44.5 µM (inactive), the GI50 [38] was > 100 µM (inactive) and the GI50 [39] was > 72.9 µM (inactive). For the same compound, the GI50 [40] was 27.9 µM (inactive), the GI50 [41] was > 83.4 µM (inactive) and the GI50 [42] was > 100 µM (inactive). For the same compound, the GI50 [43] was > 80 µM (inactive), the GI50 [44] was > 56.9 µM (inactive) and the GI50 [45] was 60.7 µM (inactive). For the same compound, the GI50 [46] was 14.9 µM (inactive), the GI50 [47] was 61.5 µM (inactive) and the GI50 [48] was 13.7 µM (inactive). For the same compound, the GI50 [49] was > 89.1 µM (inactive), the GI50 [50] was > 100 µM (inactive) and the GI50 [51] was 13.6 µM (inactive). For the same compound, the GI50 [52] was > 100 µM (inactive), the GI50 [53] was 21.8 µM (inactive) and the GI50 [54] was 50.1 µM (inactive). The GI50 [55] was > 48.2 µM (inactive), the GI50 [56] was 31.9 µM (inactive) and the GI50 [57] was > 94.2 µM (inactive). For the same compound, the GI50 [58] was 3.04 µM (inactive).
